Data as given in patent US12171230B2, “Herbicidal compositions” (Bayer Aktiengesellschaft, priority 2018, dated 2024).

Assays:
Assay type in all cases: in vivo
[1] = tested on: Bellis perenne; test: Post-emergence herbicidal action against Bellis perenne; conditions: 100 g of a.i./ha
Description: (§1) When the observed efficacies exceed the formal sum total of the values of the tests with individual applications, they also exceed the expected value according to Colby, which is calculated using the formula below and is likewise regarded as an indication of synergism (cf. S. R. Colby; in Weeds 15 (1967) p. 20 to 22): E^C=A+B−([…])
(§2) Here: • A=efficacy of the active compound (A) in % at an application rate of a g a.i./ha; • B=efficacy of the active compound (B) in % at an application rate of b g a.i./ha; • E^C=expected value of the effect of the combination (A)+(B) in % at the combined application rate a+b g a.i./ha.
Seeds or rhizome pieces of mono- and dicotyledonous weeds are placed in sandy loam in pots, covered with soil and grown in a greenhouse under good growth conditions (temperature, air humidity, water supply). Three weeks after sowing, the test plants were treated at the three-leaf stage with the compositions according to the invention. The compositions according to the invention formulated as spray powders or as emulsion concentrates were sprayed onto the green plant parts in various dosages with an application rate of 300 to 800 l/ha of water (equivalent). After the test plants have been left to stand in the greenhouse under optimal growth conditions for about 3 to 4 weeks, the action of the preparations is scored visually in comparison to untreated controls. […]

[2] = tested on: Ipomoea hederacea; test: Post-emergence herbicidal action against Ipomoea hederacea; conditions: 100 g of a.i./ha
Description: as §1, §2
Seeds or rhizome pieces of mono- and dicotyledonous weeds are placed in sandy loam in pots, covered with soil and grown in a greenhouse under good growth conditions (temperature, air humidity, water supply). Three weeks after sowing, the test plants were treated at the three-leaf stage with the compositions according to the invention. The compositions according to the invention formulated as spray powders or as emulsion concentrates were sprayed onto the green plant parts in various dosages with an application rate of 300 to 800 l/ha of water (equivalent). After the test plants have been left to stand in the greenhouse under optimal growth conditions for about 3 to 4 weeks, the action of the preparations is scored visually in comparison to untreated controls. The compositions according to the invention also have good post-emergence herbicidal activity against a broad spectrum of economically important gramineous and broadleaf weeds.

[3] = tested on: Polygonum convolvulus; test: Post-emergence herbicidal action against Polygonum convolvulus
Source text: The following abbreviations are used in the description and the tables that follow: • g of a.i./ha=grams of active substance (active ingredient) (=100% active compound) per hectare; • The sum total of the effects of the individual applications is reported under E^A; • expected values according to Colby are each reported under E^C.
The rating period is reported in days after application (DAT).

SMILES	Herbicidal action 43 DAT [%] against Bellis perenne [1]	Herbicidal action 37 DAT against Ipomoea hederacea [2]	Herbicidal action 37 DAT [%] against Ipomoea hederacea ([2]; post-emergence)	Herbicidal action 21 DAT against Polygonum convolvulus ([3]; g of a.i./ha: 90, 30, 45, 45 + 90, 45 + 30, 30 g of a.i./ha)	Herbicidal action 21 DAT against Polygonum convolvulus ([3]; g of a.i./ha: 90, 30, 45, 45 + 90, 45 + 30, 90 g of a.i./ha)
C=C[C@]1(C(=O)N[C@H]2CO[C@@H](C(=O)OC)C2)CC(c2cc(F)cc(F)c2)=NO1 (relative stereo) [Compound A3, methyl rel-(2R,4R)-4-[[(5S)-3-(3,5-difluorophenyl)-5-vinyl-4H-isoxazole-5-carbonyl]amino]tetrahydrofuran-2-carboxylate]	0%	8%	8%		
O=C(Nc1ccc(F)cc1F)c1cccnc1Oc1cccc(C(F)(F)F)c1 [(B2.18) Diflufenican]				10%	20%
